2 compounds from patent US20230174545A1, “HETEROCYCLIC COMPOUNDS AS BET INHIBITORS” (Nuvation Bio Inc., priority 2020, published 2023) can be followed below.

The term IC50 denotes the concentration at which inhibition is half-maximal. A low value points to higher potency.

One assay concerns the target T1, BRD4-2 (Homo sapiens, UniProt O60885).
T1 construct: purchased Reaction Biology Corp
The experiment in a line: Bromodomain and Extraterminal Domain (BET) binding assay (Alpha, Reaction Biology Corp.), BRD4-2. Conditions: protein 130 nM, ligand histone H4 peptide (1-21) K5/8/12/16Ac-biotin 70 nM. How it is done: (§1) The bromodomain binding assays are performed by Reaction Biology Corp., Malvern, Pa., USA (www.reactionbiology.com). The BET binding assays are conducted in 384 well microplates in assay buffer (50 mM HEPES-HCl, pH 7.5, 100 mM NaCl, 1 mg/ml BSA, 0.05% CHAPS, and 0.5% DMSO) with compounds added as DMSO stocks at a single concentration or with 10-point dose response titrations. BET protein or assay buffer are delivered to the appropriate wells of the microplate. Test compound is then delivered by acoustic technology via a Labcyte Echo550 liquid handler. The microplate is centrifuged for 5 min and pre-incubated for 30 min at RT with gentle shaking. The ligand (histone H4 peptide (1-21) K5/8/12/16Ac-biotin) is delivered and the microplate is again centrifuged for 5 min and allowed to incubate for 30 min at RT with gentle shaking. Donor beads are then added in the absence of light and the microplate is centrifuged and gently shaken. After 5 min, acceptor beads are added in the absence of light and the microplate is centrifuged and gently shaken in the dark for 60 min. The microplate is read using a Perkin Elmer EnSpire Alpha plate reader (λ Ex/λ Em=680/520-620 nm). Percent inhibition is calculated relative to positive and negative controls on a per plate basis. For titration experiments, IC50 values are determined by fitting the percent inhibition versus compound concentration. […]

The next assay addresses T2, BRD4-1 (Homo sapiens, UniProt O60885).
T2 construct: purchased Reaction Biology Corp
The experiment in a line: Bromodomain and Extraterminal Domain (BET) binding assay (Alpha, Reaction Biology Corp.), BRD4-1. The settings on record: protein 20 nM, ligand histone H4 peptide (1-21) K5/8/12/16Ac-biotin 20 nM. The protocol:
as §1

For `CCNC(=O)c1cc2c(=O)n(C)cc(-c3cc(C(C)(C)O)ccc3Oc3c(C)cc(F)cc3C)c2o1` [Compound 1, N-ethyl-7-(2-(4-fluoro-2,6-dimethylphenoxy)-5-(2-hydroxypropan-2-yl)phenyl)-5-methyl-4-oxo-4,5-dihydrofuro[3,2-c]pyridine-2-carboxamide], the IC50 came to 0.7 nM at BRD4-2 and 2370 nM at BRD4-1.
The matching figures for `CCNC(=O)c1cc2c(=O)n(C)cc(-c3cc(NS(=O)(=O)CC)ccc3Oc3ccc(F)cc3F)c2o1` [Compound 65, 7-(2-(2,4-difluorophenoxy)-5-(ethylsulfonamido)phenyl)-N-ethyl-5-methyl-4-oxo-4,5-dihydrofuro[3,2-c]pyridine-2-carboxamide]: 3 nM and 4 nM.
